PMC11755529, “Chlorpyrifos Acts as a Positive Modulator and an Agonist of N-Methyl-D-Aspartate (NMDA) Receptors: A Novel Mechanism of Chlorpyrifos-Induced Neurotoxicity” (Journal of Xenobiotics, 2025)
Where two headings read alike, the source gives them in different places.

Key:
[1] = Three-color fluorescence (FDA/PI) live, dead and apoptotic cell staining; format: cell-based, human; conditions: human, 14 μM CPF, control 96.4%, p < 0.001, read-out: cell viability (live cells)
Method: (§1) The human neural progenitor ReNcell CX cell line (Merck Millipore, Watford, UK) is a neural stem cell line derived from the developing human fetal brain cortex ([…]) at 14 weeks of gestational age. The ReNcell CX cell line was expanded on laminin-coated flasks (20 μg/mL; Sigma-Aldrich, Poole, UK) in ReNcell Neural Stem Cell (NSC) Maintenance Medium (Merck Millipore, Watford, UK) containing fresh EGF (20 ng/mL; Merck Millipore, Watford, UK) and FGF-b (20 ng/mL; Merck Millipore, Watford, UK). Cultures were incubated at 37 °C in a 95% humidified atmosphere of 5% CO2. ReNcell CX neural progenitor cells were differentiated into a co-culture of neurons, astrocytes, and oligodendrocytes by replacing the complete ReNcell CX medium with EGF- and FGF-b-free medium; with the differentiation medium refreshed every 2 days throughout the 4-week differentiation period.
(§2) A three-color fluorescence assay was performed as described by Kim et al.. Non-fluorescent fluorescein diacetate (FDA) permeates into active and intact cells and is hydrolyzed by intracellular esterases into a highly fluorescent green fluorescein when illuminated with a fluorescein isothiocyanate (FITC; blue) excitation filter set (emission wavelength […]). Propidium iodide (PI) is a nucleic acid dye that cannot permeate intact cell membranes and selectively stains the nuclei of dead cells or cells in late apoptotic stages. Stained nuclei omit red fluorescence under rhodamine (green) excitation (emission wavelength 650 nm). Live–dead cell assays followed the protocol described by Jones and Senft. The cells were observed using a Nikon TS100 inverted microscope (Nikon Europe B.V., Amstelveen, The Netherlands) with incident fluorescence optics. Images were captured at 200× magnification and digitalized with a Moticam 2300 camera (Roper Scientific Inc., Duluth, GA, USA; resolution 3 MP).
(§3) Live/dead cell staining was analyzed quantitatively. The number of PI-stained nuclei was counted manually using the cell counting option in the ImageJ software (V2 Fiji-win64, University of Nottingham).

[2] = test system: 4-week differentiated ReNcell CX cells; assay: as above; format: cell-based, human; conditions: 24 h
Method: as §1, §2, §3

[3] = molecular target: T1, GluN1-1a/GluN2A NMDAR (Rattus norvegicus, UniProt P35439+Q00959); assay: TEVC electrophysiology of Xenopus oocytes expressing GluN1-1a/GluN2A; format: cell-based
T1 construct: expressed in transfected cells; host or cells: Xenopus laevis oocytes, injected with cRNA or plasmid DNA (pRK7 or pBluescript SK(-))
T1 sequence (Q00959 20-1464 limits assumed, other chains not shown): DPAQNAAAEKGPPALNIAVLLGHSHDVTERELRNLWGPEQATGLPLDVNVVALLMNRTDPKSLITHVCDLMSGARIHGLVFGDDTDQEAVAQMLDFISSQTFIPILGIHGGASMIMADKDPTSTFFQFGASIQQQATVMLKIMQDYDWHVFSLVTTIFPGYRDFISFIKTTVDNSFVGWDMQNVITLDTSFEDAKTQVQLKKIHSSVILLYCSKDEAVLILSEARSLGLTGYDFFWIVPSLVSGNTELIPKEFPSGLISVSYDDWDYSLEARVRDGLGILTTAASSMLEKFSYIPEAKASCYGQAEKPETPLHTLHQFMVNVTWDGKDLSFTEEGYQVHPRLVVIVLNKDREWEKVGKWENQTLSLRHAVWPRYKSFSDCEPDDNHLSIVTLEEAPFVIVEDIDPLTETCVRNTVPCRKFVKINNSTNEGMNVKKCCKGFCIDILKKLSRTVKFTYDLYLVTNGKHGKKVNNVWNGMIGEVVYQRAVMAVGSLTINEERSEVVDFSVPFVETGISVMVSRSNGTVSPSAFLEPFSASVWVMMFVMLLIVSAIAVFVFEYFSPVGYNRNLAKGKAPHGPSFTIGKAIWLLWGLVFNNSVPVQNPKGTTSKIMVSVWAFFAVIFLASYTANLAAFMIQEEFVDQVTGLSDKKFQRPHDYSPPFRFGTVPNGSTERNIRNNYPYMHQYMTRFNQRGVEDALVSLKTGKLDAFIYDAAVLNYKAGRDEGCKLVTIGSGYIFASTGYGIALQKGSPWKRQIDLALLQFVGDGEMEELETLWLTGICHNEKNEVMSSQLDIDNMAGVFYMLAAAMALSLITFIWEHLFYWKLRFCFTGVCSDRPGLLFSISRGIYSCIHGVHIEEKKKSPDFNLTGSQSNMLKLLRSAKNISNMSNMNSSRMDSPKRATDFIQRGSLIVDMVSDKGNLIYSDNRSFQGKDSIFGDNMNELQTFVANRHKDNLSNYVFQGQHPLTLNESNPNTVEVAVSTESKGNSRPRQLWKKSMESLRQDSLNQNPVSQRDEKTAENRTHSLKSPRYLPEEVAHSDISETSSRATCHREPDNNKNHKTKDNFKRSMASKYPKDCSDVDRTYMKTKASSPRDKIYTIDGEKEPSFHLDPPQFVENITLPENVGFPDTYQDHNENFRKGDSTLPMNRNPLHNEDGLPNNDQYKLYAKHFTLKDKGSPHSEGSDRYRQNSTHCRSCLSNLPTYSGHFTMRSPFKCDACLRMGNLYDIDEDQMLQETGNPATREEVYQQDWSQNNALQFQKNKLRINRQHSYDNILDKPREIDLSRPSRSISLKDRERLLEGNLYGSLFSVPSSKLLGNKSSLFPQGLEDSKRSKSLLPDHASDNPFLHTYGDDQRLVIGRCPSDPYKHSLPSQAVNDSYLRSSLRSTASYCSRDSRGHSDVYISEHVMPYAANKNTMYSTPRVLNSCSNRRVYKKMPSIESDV
Method: (§4) Ovaries of mature female Xenopus laevis were supplied by the European Xenopus Resource Centre (University of Portsmouth, Portsmouth, UK). Upon receipt, oocytes were first separated with 1 mg/mL collagenase (Type 1A from Clostridium histolyticum; Sigma, Poole, UK) in Ca^2+-free Barth’s gentamicin–theophylline–pyruvate (GTP) solution (96 mM NaCl, 2 mM KCl, 1 mM MgCl2, 5 mM HEPES, 2.5 mM pyruvic acid, 0.5 mM theophylline, 50 μg/mL gentamicin, pH 7.5) on a shaker for approximately 45 min at room temperature. Oocytes were then rinsed with Ca^2+-free GTP solution six to eight times until a clear solution was obtained and incubated in normal Barth’s GTP solution (Ca^2+-free GTP with inclusion of 1.8 mM CaCl2) at ~4 °C for at least half an hour prior to microinjection.
(§5) Healthy oocytes at developmental stages IV and V were injected with 50 nL of cRNA (into the cytoplasm) or plasmid DNA (into the nucleus) at a concentration of ~100 ng/μL using a Nanolitre 2010 Injector (World Precision Instruments, Hitchin, UK). cRNA or DNA plasmids encoding the rat NMDAR subunits GluN1-1a and GluN2A or GluN1-1a and GluN2B were mixed at ratios of 1:1 (by weight) for injection. The cRNA was synthesized from linearized plasmid DNA (pRK7 or pBluscript SK(−)) containing the GluN-encoding genes using an Invitrogen mMessage mMachine kit (Thermo Fisher Scientific, Loughborough, UK). Injected oocytes were kept in normal Barth’s GTP solution at 19 °C for two to three days for expression of NMDAR subunits before recordings.
(§6) TEVC electrophysiology was used to assess the direct effects of CPF on NMDARs containing GluN1-1a and GluN2A or GluN1-1a and GluN2B subunits expressed in Xenopus oocytes. Pulled borosilicate glass capillaries (GC150TF-10, Harvard Apparatus, Cambridge, UK) (resistances 0.5–2 MΩ) were filled with 3 M KCl and used to impale injected oocytes for recording. Injected oocytes were continuously perfused with Mg^2+-free Xenopus Ringer solution (95 mM NaCl, 2 mM KCl, 2 mM CaCl2, 5 mM HEPES, pH 7.5) at a flow rate of 5 mL/min, with test compounds applied using a Valvelink 8 gravity-fed perfusion system (Automate Scientific, Berkeley, CA, USA). Recordings were performed at 20–25 °C and oocytes were clamped at −75 mV holding potential in all experiments. Output current responses were transferred to a PC via an analogue-to-digital (A/D) converter (National Instruments PCI-6014, Austin, TX, USA) and recorded in WinEDR V3.2.7 software (John Dempster, Strathclyde Electrophysiology Software, Strathclyde Institute of Pharmacy and Biomedical Sciences, University of Strathclyde, Strathclyde, UK). Current changes in response to NMDA/glycine when applied with CPF were normalized to the control current without CPF.
(§7) Results were expressed as means ± standard error of the mean (SEM). Statistical analysis was undertaken between concentrations using an independent samples Kruskal–Wallis test across cell culture conditions using IBM SPSS statistical software (version 26.0). […] EC50 and maximum response values were obtained using non-linear regression by fitting a four-parametric logistic equation to concentration–response plots in GraphPad Prism 10 (GraphPad Software Inc., La Jolla, CA, USA):(1) Y=Min+Max−Min/10^LogEC50−XS+1 where Y is the response to the agonist, X is the log10 concentration of the agonist, EC50 is the concentration of agonist that produces a half-maximum activation response, and S is the Hill slope. EC50s and maximum responses were compared for significant differences using an extra sum of squares F-test in GraphPad Prism 10.

[4] = cited from earlier work
[5] = molecular target: T2, GluN1-1a/GluN2B NMDAR (Rattus norvegicus, UniProt P35439+Q00960); assay: TEVC electrophysiology of Xenopus oocytes expressing GluN1-1a/GluN2B; format: cell-based
T2 construct: expressed in transfected cells; host or cells: Xenopus laevis oocytes, injected with cRNA or plasmid DNA (pRK7 or pBluescript SK(-))
T2 sequence (Q00960 27-1482, other chains not shown): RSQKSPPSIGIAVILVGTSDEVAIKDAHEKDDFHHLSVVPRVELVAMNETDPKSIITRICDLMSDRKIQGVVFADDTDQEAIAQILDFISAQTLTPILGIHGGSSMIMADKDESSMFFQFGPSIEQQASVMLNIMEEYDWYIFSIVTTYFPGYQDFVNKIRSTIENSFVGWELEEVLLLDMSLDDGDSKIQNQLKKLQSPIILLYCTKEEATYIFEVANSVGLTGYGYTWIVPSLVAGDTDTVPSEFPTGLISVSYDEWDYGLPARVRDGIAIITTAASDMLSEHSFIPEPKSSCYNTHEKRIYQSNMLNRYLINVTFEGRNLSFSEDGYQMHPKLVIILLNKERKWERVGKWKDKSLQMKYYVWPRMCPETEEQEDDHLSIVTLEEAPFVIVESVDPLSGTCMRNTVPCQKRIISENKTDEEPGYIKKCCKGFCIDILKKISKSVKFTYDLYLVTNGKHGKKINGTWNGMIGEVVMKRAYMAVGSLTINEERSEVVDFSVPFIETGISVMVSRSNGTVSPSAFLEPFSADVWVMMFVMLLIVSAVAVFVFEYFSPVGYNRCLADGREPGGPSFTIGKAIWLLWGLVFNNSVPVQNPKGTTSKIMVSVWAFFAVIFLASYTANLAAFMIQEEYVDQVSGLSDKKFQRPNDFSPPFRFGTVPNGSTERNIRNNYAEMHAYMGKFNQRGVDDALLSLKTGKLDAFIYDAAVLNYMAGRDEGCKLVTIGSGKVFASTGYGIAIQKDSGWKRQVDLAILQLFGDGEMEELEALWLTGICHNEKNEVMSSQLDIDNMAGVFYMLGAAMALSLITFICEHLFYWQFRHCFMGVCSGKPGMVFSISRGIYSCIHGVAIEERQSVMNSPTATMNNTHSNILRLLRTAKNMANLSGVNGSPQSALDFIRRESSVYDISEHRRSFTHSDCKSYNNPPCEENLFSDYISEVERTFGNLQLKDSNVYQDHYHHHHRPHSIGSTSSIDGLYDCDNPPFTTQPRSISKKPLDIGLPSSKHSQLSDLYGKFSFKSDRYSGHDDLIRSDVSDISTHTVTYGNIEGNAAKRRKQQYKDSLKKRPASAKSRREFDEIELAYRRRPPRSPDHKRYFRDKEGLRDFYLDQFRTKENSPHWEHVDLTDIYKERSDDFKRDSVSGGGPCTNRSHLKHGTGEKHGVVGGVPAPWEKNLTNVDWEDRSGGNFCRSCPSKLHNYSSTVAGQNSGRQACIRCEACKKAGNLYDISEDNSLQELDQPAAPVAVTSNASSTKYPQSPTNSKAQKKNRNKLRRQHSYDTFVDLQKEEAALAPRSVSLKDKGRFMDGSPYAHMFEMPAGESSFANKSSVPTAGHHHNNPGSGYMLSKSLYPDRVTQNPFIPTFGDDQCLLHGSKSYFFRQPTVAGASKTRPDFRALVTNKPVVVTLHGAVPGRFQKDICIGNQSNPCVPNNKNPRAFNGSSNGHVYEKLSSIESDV
Method: as §4, §5, §6, §7

[6] = 10 μM CPF applied directly, −75 mV

SMILES: CCOP(=S)(OCC)Oc1nc(Cl)c(Cl)cc1Cl [CPF, O,O-diethyl O-(3,5,6-trichloropyridin-2-yl) phosphorothioate]
- viability at 24 h, 14 μM [1]: 71.4%
- cells transitioned to apoptosis ([2]; 14 μM CPF): 18.7%
- dead cells ([2]; 14 μM CPF): 3.91%
- EC50 [3]: ~0.04 µM
- enhancement of current evoked by 10 μM glycine ([3]; 1 μM CPF co-applied with 10 μM glycine, n = 3, p < 0.05): ~ 1.7 fold
- direct activation by CPF alone [3, 6]: resulted in NMDAR-mediated currents
- no observed adverse effect level (NOAEL), as concentration ([4]; conversion of 100 μg/kg/day as printed): ≈ 285 nM
- no observed adverse effect level (NOAEL) ([4]; set by European Food Safety Authority): 100 µg/kg/day
- EC50 [5]: ~0.055 µM
- direct activation by CPF alone [5, 6]: resulted in NMDAR-mediated currents
- enhancement of current evoked by 100 μM NMDA ([5]; 10 μM CPF co-applied with 100 μM NMDA, n = 5, p < 0.05): ~ 8.2 fold

SMILES: CC(C(O)c1ccc(O)cc1)N1CCC(Cc2ccccc2)CC1 (stereo not drawn) [IFN, ifenprodil, reference compound]
- effect on CPF-induced decrease in cell viability ([2]; 25 μM IFN co-administered with 14 μM CPF, p < 0.001): attenuated the CPF-induced decrease in ReNcell CX cell viability
- antagonism of CPF-induced potentiation of NMDA/glycine-evoked current ([5]; 100 μM IFN with 1 μM CPF, 10 μM NMDA, 10 μM Gly, −75 mV): completely blocked

SMILES: C[C@]12N[C@H](Cc3ccccc31)c1ccccc12 [MK-801, reference compound]
- antagonism of CPF-induced potentiation of NMDA/glycine-evoked current ([3]; 10 μM MK-801 with 1 μM CPF, 10 μM NMDA, 10 μM Gly, −75 mV): completely blocked

SMILES: CN[C@H](CC(=O)O)C(=O)O [NMDA, N-methyl-D-aspartate]
- maximum response (percentage of the response to 1 mM NMDA) ([3]; 10 μM glycine, absence of CPF): 102%
- EC50 ([3]; 10 μM glycine, absence of CPF, n = 5, read-out: NMDA EC50): 57.9 µM
- maximum response (percentage of the response to 1 mM NMDA) ([5]; 10 μM glycine, absence of CPF): 103%
- EC50 ([5]; 10 μM glycine, absence of CPF, n = 6, read-out: NMDA EC50): 70 µM
